Assay results from US20250312365A1, “METHODS FOR INHIBITION OF SQUAMOUS CARCINOMA CELLS USING CERAMIDE MODULATORS” (The Trustees of Indiana University, priority 2024, published 2025).
Entries after “also recorded” stand apart in the source; their conditions may differ.

Assays:
[1] = test system: human gingival squamous carcinoma cells (OECM1); experiment: Cell viability/proliferation assay (WST-1) in OECM1 cells; assay type: cell-based; settings: for OECM1 viability / proliferation: 0.1, 1, 2 and 5 μg/ml, normalized to control
Text: (§1) In specific examples, colorimetric assays can be used to assess cellular viability and proliferation of cell cultures, such as MTT, WST-1, and resazurin assays. See, e.g., Präbst et al., Methods Mol Biol. 2017:1601:1-17.
(§2) Various cell lines were exposed to PGDHC, including human gingival squamous carcinoma cells (OECM1), tongue squamous carcinoma cells (SCC4, SCC9), and healthy human gingival epithelial control cells (OBA9) in vitro.
(§3) To elucidate the effects of C16:0 and dh-C16:0 on oral squamous cell carcinoma, the ability of exogenous C16:0 and dh-C16:0 to modulate proliferation and ceramidase expression in OECM1 cells was determined. […] In contrast, no effect of C16:0 on ASAH1 and ACER2 mRNA expressions.
(§4) LCL521 is a dose-dependent acid ceramidase inhibitor. Comparison of the concentration-dependent effects of an acid ceramidase inhibitor, LCL521 (MedChemExpress®), and the bacterial-isolated a15:0-15:0PE phospholipid on the viability of healthy human epithelial, OBA9, and oral squamous cancer cell lines, OECM1 and SCC9, in vitro was evaluated. […] (FIG. 15A). […] (FIG. 15B).

ACER2 = ACER2 mRNA expression in OECM1 cells; assay type: cell-based, human; settings: 1 μg/ml, compared to sham control
Text: (§5) Exemplary ceramidase genes, the expression of which can be measured to determine upregulation, include but are not limited to ASAH1, ACER2, and ACER3. A determination of ceramidase gene expression can be made according to methods available to one of skill in the art. For example, Yamada et al., J Cell Mol Med. 2023 May;27(9):1290-1295 and Kyriakou et al., Int. J. Mol. Sci. 2020, 21(5):1607 describes measuring the mRNA levels of ceramidases by RNA extraction and RT-PCR.
(§6) To test this hypothesis, it was first determined whether artificially elevated intracellular concentration of ceramide species affect the expression of acid/ASAH1, neutral/ASAH2, and alkaline1-3/ACER1-3 ceramidases in oral squamous cell carcinoma cells using C6-ceramide. Applicant previously reported that C6-ceramide serves as a positive control for PGDHC-mediated inflammation (Kanzaki et al., Biochim Biophys Acta Mol Cell Biol Lipids. 2017 May;1862(5):452-462) and promotes the intracellular accumulation of ceramide in cancer cells. See, e.g., Zhang et al., Front Plant Sci. 2020 Feb. 26:11:145, Zhai et al., Biochem Biophys Res Commun. 2015 December;468(1-2):274-80, Wilhelm et al., Cancers (Basel). 2021 Jan. 13;13(2):270, and Chapman et al., Biochem Pharmacol. 2010 Aug. 1;80(3):308-15.
(§7) Next, the effect of PGDHC on ceramidase gene expression was determined. OECM1 and SCC4 cells were exposed to 0.1 or 1 μg/ml of PGDHC. The mRNA levels of ceramidases were then measured following PGDHC exposure. PGDHC inhibited the expression of ASAH1 and ACER2 mRNAs in OECM1 (FIG. 8). […] See, e.g., Vijayan et al., J Adv Res. 2023 Dec. 21:S2090-1232(23)00403-4, Doan et al., Oncotarget. 2017 Nov. 7;8(68):112662-112674., Lai et al., Sci Rep. 2021 May 27;11(1):11221, Liu et al., Cancer Sci. 2020 July;111(7):2259-2274., and Liu et al., Front Genet. 2023 Mar. 1:14:1148437.
as §3

ACER3 = ACER3 mRNA expression in OECM1 cells; assay type: cell-based, human; settings: 1 μg/ml, compared to sham control
Text: as §5
as §6, with “13;13(2):270, and Chapman et al., Biochem Pharmacol. 2010 Aug. 1;80(3):308-15.” left out
To elucidate the effects of C16:0 and dh-C16:0 on oral squamous cell carcinoma, the ability of exogenous C16:0 and dh-C16:0 to modulate proliferation and ceramidase expression in OECM1 cells was determined. […]

ASAH1 [2] = experiment: ASAH1 (acid ceramidase) mRNA expression in OECM1 cells; assay type: cell-based, human; settings: for expression of ASAH1 in OECM1 cells: 1 μg/ml, compared to sham control
Text: as §5, §6, §7, §3
(§8) We evaluated the effect of a15:0-i15:0 phosphoethanolamine phospholipid (FIG. 1D), isolated from the gut bacteria Akkermansia muciniphila on OSCC cells.

[3] = test system: tongue squamous carcinoma cells (SCC9); experiment: Cell viability/proliferation assay (WST-1) in SCC9 cells; assay type: cell-based, human
Text: as §1, §2, §4

[4] = test system: healthy human gingival epithelial control cells (OBA9); experiment: Cell viability/proliferation assay (WST-1) in healthy OBA9 cells; assay type: cell-based
Text: as §1, §2, §4

ASAH1 [5] = experiment: ASAH1 mRNA expression in SCC9 cells; assay type: cell-based, human; settings: different concentrations of a15:0-i15:0PE
Text: as §8

SCC9 cells = experiment: Untargeted metabolomic pathway analysis (LC/MS) in SCC9 cells; assay type: cell-based, human; settings: 1 μg/ml for 6 h
Text: The plots in FIGS. 16A and 16B display the enriched pathways identified in the analysis, with their corresponding significance levels represented on the x-axis. The significance threshold (p<0.05) is denoted by the dashed line. […] Additionally, the color of the dots represents the enrichment, which indicates the extent to which the metabolites in the pathway were clustered amongst the compounds with the most positive fold-changes (positive enrichments), the most negative fold-changes (negative enrichments), or uniformly distributed across high and low fold-change compounds (enrichment values near 0.0). […] Polar and lipid metabolites were analyzed with hydrophilic interaction chromatography (HILIC/MS) and liquid chromatography (LC/MS), respectively. Mass spectrometry analysis was completed with a mass range of 67-1500 Da with 1 scan/sec and a mass resolution of 120,000 in both positive and negative ionization mode. The MS/MS mass-spectrometry data were acquired in a data-dependent iterative fashion with a 1.3 m/z isolation window. Based upon this metabolomic analysis, phosphoglycerol dihydroceramide (PGDHC) isolated from Porphyromonas gingivalis inhibits metabolomic pathways essential for cell survival in oral squamous cell carcinoma cells (OSCC). […]
SCC9 were exposed to a15:0-i15:0PE (1 μg/ml) for 6 h in vitro. […] The significance threshold (p<0.05) is denoted by the grey dashed line. […] Additionally, the color of the dots represents the enrichment, which indicates the extent to which the metabolites in the pathway were clustered amongst the compounds with the most positive fold-changes (positive enrichments), the most negative fold-changes (negative enrichments), or uniformly distributed across high and low fold-change compounds (enrichment values near 0.0).

acid ceramidase = experiment: Acid ceramidase level by confocal microscopy in SCC9 cells; assay type: cell-based, human
Text: as §8

ASAH1 [6] = settings: Yamada et al. 2023; cited from earlier work
[7] = test system: ceramide and dihydroceramide in OECM1 cells; settings: Yamada et al. 2023; cited from earlier work
[8] = test system: human gingival squamous carcinoma cells (OECM1); settings: Yamada et al. 2023; cited from earlier work
[9] = at concentrations lower than 1 μg/mL

CCCCCCCCCCCCC/C=C/[C@@H](O)[C@H](CO)NC(=O)CCCCC [C6-ceramide]
OECM1 viability / proliferation [1]: inhibited OECM1 viability in a concentration-dependent manner | expression of ACER2 in OECM1 cells (ACER2): inhibited expression | expression of ACER3 in OECM1 cells (ACER3): inhibited expression | expression of ASAH1 in OECM1 cells (ASAH1 [2]): inhibited expression

CCCCCCCCCCCCC/C=C/[C@@H](O)[C@H](CO)NC(=O)CCCCCCCCCCCCCCC [C16:0, C16:0 ceramide]
expression of ACER2 in OECM1 cells (ACER2): no effect | expression of ASAH1 in OECM1 cells (ASAH1 [2]): no effect

CCCCCCCCCCCCCC(=O)N[C@H](COC(=O)CN(C)C)[C@H](OC(=O)CN(C)C)c1ccc([N+](=O)[O-])cc1 [LCL521, reference compound]
inhibition of viability of OECM1 ([1]; 10 μM): 20% | inhibition of viability of SCC9 ([3]; 10 μM): 20% | inhibition of viability of OBA9 ([4]; 10 μM): over 50%

CC[C@H](C)CCCCCCCCCCC(=O)OC[C@H](COP(=O)(O)OCCN)OC(=O)CCCCCCCCCCCC(C)C [a15:0-15:0PE, 1-(12S-methylmyristoyl)-2-(13-methylmyristoyl)-sn-glycero-3-phosphoethanolamine]
viability of OECM1 cells [1, 9]: significantly inhibited | viability of SCC9 cells [3, 9]: significantly inhibited | expression patterns of ASAH1 mRNA in SCC9 (ASAH1 [5]): dose-dependent decrease in expression | healthy OBA9 cell viability ([4]; concentrations of 0.1, 1.0 and 2.0 μM (FIG. 15B)): No significant effect | amino fatty acid metabolism in SCC9 cells (SCC9 cells): inhibits | arginine and proline metabolism in SCC9 cells (SCC9 cells): inhibits | vitamin B6 metabolism in SCC9 cells (SCC9 cells): inhibits | amino fatty acid metabolism in SCC9 cells (SCC9 cells; listed as a15:0-i15:0PE): diminished accumulation | arginine and proline metabolism in SCC9 cells (SCC9 cells; listed as a15:0-i15:0PE): diminished accumulation | vitamin B6 metabolism in SCC9 cells (SCC9 cells; listed as a15:0-i15:0PE): diminished accumulation | levels of acid ceramidase in SCC9 cells (confocal, corrected total cell fluorescence) (acid ceramidase): decreased expression | expression patterns of ASAH1 mRNA in OECM1 (ASAH1 [2]; different concentrations of a15:0-i15:0PE): dose-dependent decrease in expression

CCCCCCCCCCCCCCCC(=O)N[C@@H](CO)[C@H](O)CCCCCCCCCCCCCCC [dh-C16:0, Dihydroceramide C16:0]
OECM1 viability / proliferation [1]: significantly inhibited OECM1 cells proliferation in a concentration-dependent manner | expression of ACER2 in OECM1 cells (ACER2): dramatically inhibits | expression of ACER3 in OECM1 cells (ACER3): dramatically inhibits | expression of ASAH1 in OECM1 cells (ASAH1 [2]): dramatically inhibits

phosphoethanolamine dihydroceramide [PEDHC]
ASAH1 (acid ceramidase) expression in OECM1 cells (ASAH1 [6]): inhibition; also recorded: downregulation | accumulation of antiproliferative ceramides in OECM1 cells [7]: elevated accumulation | proliferation of OECM1 cells [8]: inhibited the proliferation
